Experimental data: patent publication US20180044640A1, “CONTRACTILE CELLULAR CONSTRUCT FOR CELL CULTURE” (Agency for Science, Technology and Research, priority 2015, published 2018)
Read-outs that look alike come from different tables or passages of the source. Each block holds one molecule with its values, some of them ahead of it.

Legend:
[1] = tested on: 3D cardiac tissues (hiPSC-derived cardiomyocytes)
Experimental: To generate 3D cardiac tissues, 12-day differentiated cardiac cells were detached from culture wells using accutase (Stem Cell Technologies), suspended in RPMI-B27medium containing Y-27632 (5 uM) to reach a final concentration of 1.5×10^8 cells/mL. Casting molds were prepared by placing the tissue holder and PDMS molds in 96-well culture plates. For each tissue, 12 μL cell suspension was loaded into the cell loading channel. For florescence-labeled cardiac tissue, 12 μL cell suspension was mixed briefly with ˜20 FluoSpheres polystyrene microspheres (diameter 15 μm, Life Technologies) and pipetted into cell loading channels. The 96-well plates were placed in a 37° C., 5% CO2 culture incubator for 2 hours. 0.20 mL of cell culture medium was then added per well for continued culture. After one day of culture, media was changed to RPMI-B27 medium without Y-27632 and changed every day.
Cardiac tissue contractility was assessed based on the recorded video using IMARIS software. The cardiac tissues were labeled with fluorescence beads, as described above. The video was exported as image stacks for IMARIS tracking analysis. The software can identify the contraction and relaxation events based on the relative positions of the florescence beads during the entire tissue beating sequence. These positions were recorded, and the relevant contractility parameters were calculated from the temporal change of these positions.
Toxicity studies were performed using a Zeiss fluorescence microscope, within a closed environment chamber maintaining constant 37° C. temperature and 5% CO2 humidified air for long time lapse imaging of live cells. An experiment design program in Zen software was used to create an automatic measurement program. For chronic drug response, videos were recorded for each well at every 1 h interval.
The videos were recorded at cumulative concentrations 1 hr before measurement, and processed using IMARIS software.

Cardiac spheroids = assay: Toxicity assay based on ATP activity (CellTiter-Glo 3D cell viability assay); parameters: species or system human; conditions: 1 hr incubation, normalized to drug-free controls
Experimental: Cardiac spheroids were incubated with various concentrations of compounds dissolved in culture medium for 1 hr, and cell viability was subsequently measured by CellTiter-Glo® 3D cell viability assay (Promega), which determines the number of viable cells in culture based on quantitation of the ATP present. Data is normalized to drug-free controls. Data from the same treatment on 3 occasions were averaged to represent the mean ATP measurement.

[2] = tested on: iPSC-derived cardiomyocytes monolayer; type: cell-based; conditions: human; for Time at which significant reduced beating speed was observed / Time of total arrest of beating: 2 days
Experimental: The 12-day differentiated cardiomyocytes were detached using accutase and suspended in RPMI-B27 medium containing Y-27632 (5 uM). The cell suspension was mixed with FluoSpheres polystyrene microspheres, and loaded into matrigel or fibronectin coated 384-well microplate (Greiner) or 96-well tissue culture plates at 0.25˜0.30 *10^6cells/50˜100 microspheres/cm^2.
The videos were recorded for each well at every 1 hr interval and processed using IMARIS software.

SMILES: CC[C@H]1OC(=O)[C@H](C)[C@@H](O[C@H]2C[C@@](C)(OC)[C@@H](O)[C@H](C)O2)[C@H](C)[C@@H](O[C@@H]2O[C@H](C)C[C@H](N(C)C)[C@H]2O)[C@](C)(O)C[C@@H](C)C(=O)[C@H](C)[C@@H](O)[C@]1(C)O [erythromycin]
Concentration up to which negligible / no significant toxicity was detected (ATP-based cell viability) (Cardiac spheroids): up to 500 μM
Concentration at which complete arrest of contraction was observed ([1]; human, 1 h): 10 µM

SMILES: CN(C)C(=N)N=C(N)N [metformin]
Change in beating rates [1]: less pronounced changes in beating rates

SMILES: N=C(N)c1ccc(OCCCCCOc2ccc(C(=N)N)cc2)cc1 [pentamidine, Pentamidine]
Concentration at which complete arrest of beating was observed ([2]; 1 h): 100 µM
Concentration showing pronounced changes in contraction speed ([2]; 1 h): 10 µM
Time at which significant reduced beating speed was observed ([2]; 5 μM): 28 h
Time of total arrest of beating ([2]; 5 μM): 44 h
Time at which significant reduced beating speed was observed ([2]; 10 μM): 4 h
Time of total arrest of beating ([2]; 10 μM): 30 h

SMILES: C=C[C@H]1C[N@@]2CC[C@H]1C[C@@H]2[C@@H](O)c1ccnc2ccc(OC)cc12 [quinidine]
Concentration at which complete arrest of contraction was observed ([1]; human, 1 h): 10 µM

SMILES: N[C@@H]1[C@H]2CN(c3nc4c(cc3F)c(=O)c(C(=O)O)cn4-c3ccc(F)cc3F)C[C@@H]12 [trovafloxacin]
Concentration at which complete arrest of contraction was observed ([1]; human, 1 h): 100 µM

The next lines start with results.

Concentration at which complete arrest of contraction was observed [1]: 200 µM
SMILES: CCS(=O)(=O)N(C)[C@H]1c2cc(C#N)ccc2OC(C)(C)[C@@H]1O (racemic) [chromanol 293B]

Concentration up to which negligible beating rate changes were observed ([1]; human, 1 h): up to 1 mM
SMILES: CC1(C)S[C@@H]2[C@H](NC(=O)[C@H](N)c3ccccc3)C(=O)N2[C@H]1C(=O)O [ampicillin, Ampicillin]
Concentration up to which negligible / no significant toxicity was detected (ATP-based cell viability) (Cardiac spheroids): ≤ 10000 µM

Concentration at which complete arrest of contraction was observed ([1]; human, 1 h): 50 µM
SMILES: CN(CCOc1ccc(CC2SC(=O)NC2=O)cc1)c1ccccn1 (stereo not shown) [rosiglitazone, Rosiglitazone]

Concentration at which complete arrest of contraction was observed ([1]; human, 1 h): 50 µM
SMILES: Cc1c(C)c2c(c(C)c1O)CCC(C)(COc1ccc(CC3SC(=O)NC3=O)cc1)O2 (stereo not shown) [troglitazone]
